Assay results from ChEMBL document CHEMBL1201862, “PubChem BioAssay data set” (2004).
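Protocol summary: plate cells (96-well), add compound at 5 concentrations, incubate 48 h, interpolate endpoints linearly. GI50 is the concentration that inhibits growth by half.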 Calls of active or inactive are those of the source. Cut-off read from the data, not from the text of the source: active = GI50 up to about 1.1 µM and inactive = higher.

Key:
Experiment in all cases: NCI-60 cell line screen, 48 h
[1] = test system: KM12
[2] = test system: NCI-H522
[3] = test system: HCT-116
[4] = test system: NCI-H460
[5] = test system: SN12C
[6] = test system: TK-10
[7] = test system: NCI-H226
[8] = test system: UACC-257
[9] = test system: SK-OV-3
[10] = test system: OVCAR-4
[11] = test system: SF-268
[12] = test system: A498
[13] = test system: 786-0
[14] = test system: HCT-15
[15] = test system: COLO 205
[16] = test system: Hs-578T
[17] = test system: CCRF-CEM
[18] = test system: MCF7
[19] = test system: DU-145
[20] = test system: SF-295
[21] = test system: SNB-75
[22] = test system: SK-MEL-5
[23] = test system: HOP-92
[24] = test system: HOP-62
[25] = test system: A549
[26] = test system: BT-549
[27] = test system: T47D
[28] = test system: Malme-3M
[29] = test system: UO-31
[30] = test system: ACHN
[31] = test system: HCC 2998
[32] = test system: MOLT-4
[33] = test system: SK-MEL-2
[34] = test system: MDA-N
[35] = test system: MDA-MB-435
[36] = test system: IGROV-1
[37] = test system: SW-620
[38] = test system: OVCAR-3
[39] = test system: SK-MEL-28
[40] = test system: PC-3
[41] = test system: UACC-62
[42] = test system: U-251
[43] = test system: RPMI-8226
[44] = test system: RXF 393
[45] = test system: OVCAR-8
[46] = test system: EKVX
[47] = test system: NCI-H23
[48] = test system: M14
[49] = test system: SR
[50] = test system: NCI/ADR-RES
[51] = test system: CAKI-1
[52] = test system: K562
[53] = test system: OVCAR-5
[54] = test system: HL-60
[55] = test system: LOX IMVI
[56] = test system: HT-29
[57] = test system: SNB-19
[58] = test system: SF-539
[59] = test system: MDA-MB-231

c1ccc(CNC2CC(NCc3ccccn3)CC(NCc3ccccn3)C2)nc1 (centres undefined)
GI50 [1]: 1.73 µM (inactive)
GI50 [2]: 2.62 µM (inactive)
GI50 [3]: 2.23 µM (inactive)
GI50 [4]: 2.6 µM (inactive)
GI50 [5]: 5.97 µM (inactive)
GI50 [6]: 4.58 µM (inactive)
GI50 [7]: 2.32 µM (inactive)
GI50 [8]: 6.65 µM (inactive)
GI50 [9]: 2.82 µM (inactive)
GI50 [10]: 2.88 µM (inactive)
GI50 [11]: 4.53 µM (inactive)
GI50 [12]: 1.82 µM (inactive)
GI50 [13]: 3.02 µM (inactive)
GI50 [14]: 4.21 µM
GI50 [15]: 1.81 µM (inactive)
GI50 [16]: 8.28 µM (inactive)
GI50 [17]: 2.92 µM (inactive)
GI50 [18]: 2.29 µM (inactive)
GI50 [19]: 3.14 µM (inactive)
GI50 [20]: 4.18 µM (inactive)
GI50 [21]: 2.97 µM (inactive)
GI50 [22]: 2.25 µM (inactive)
GI50 [23]: 3.24 µM (inactive)
GI50 [24]: 5.47 µM (inactive)
GI50 [25]: 2.61 µM (inactive)
GI50 [26]: 6.79 µM (inactive)
GI50 [27]: 4.61 µM (inactive)
GI50 [28]: 3.56 µM (inactive)
GI50 [29]: 16.7 µM (inactive)
GI50 [30]: 12.5 µM (inactive)
GI50 [31]: 1.98 µM (inactive)
GI50 [32]: 3.96 µM (inactive)
GI50 [33]: 2.58 µM (inactive)
GI50 [34]: 3.42 µM (inactive)
GI50 [35]: 3.28 µM (inactive)
GI50 [36]: 3.21 µM (inactive)
GI50 [37]: 4.11 µM (inactive)
GI50 [38]: 3.33 µM (inactive)
GI50 [39]: 4.75 µM (inactive)

CC[C@H]1C=CCC[C@@]2(C[C@@H]3CC[C@H]4[C@@H](C(=O)OCCCCCCCCCCCCCCCC(=O)N(CCCNC(C)=O)C[C@H](CCNC(C)=O)OC(C)=O)[C@@]5(CCC[C@@H](C)O5)NC(=[N+]34)N2)O1
GI50 [1]: 1.38 µM (inactive)
GI50 [2]: 1.24 µM (inactive)
GI50 [3]: 1.58 µM (inactive)
GI50 [40]: 1.07 µM (active)
GI50 [4]: 1.6 µM (inactive)
GI50 [41]: 1.85 µM (inactive)
GI50 [5]: 2.01 µM (inactive)
GI50 [42]: 0.914 µM (active)
GI50 [6]: 1.56 µM (inactive)
GI50 [43]: 0.227 µM (active)
GI50 [7]: 1.41 µM (inactive)
GI50 [8]: 1.24 µM (inactive)
GI50 [9]: 1.74 µM (inactive)
GI50 [10]: 1.4 µM (inactive)
GI50 [11]: 1.66 µM (inactive)
GI50 [44]: 1.79 µM (inactive)
GI50 [12]: 1.83 µM (inactive)
GI50 [13]: 1.98 µM (inactive)
GI50 [14]: 1.7 µM
GI50 [15]: 1.28 µM (inactive)
GI50 [45]: 1.4 µM (inactive)
GI50 [16]: 1.93 µM (inactive)
GI50 [46]: 0.861 µM (active)
GI50 [18]: 1.46 µM (inactive)
GI50 [19]: 1.57 µM (inactive)
GI50 [20]: 1.86 µM (inactive)
GI50 [47]: 1.58 µM (inactive)
GI50 [22]: 1.3 µM (inactive)
GI50 [23]: 1.11 µM (active)
GI50 [24]: 2 µM (inactive)
GI50 [25]: 1.88 µM (inactive)
GI50 [48]: 1.73 µM (inactive)
GI50 [26]: 1.82 µM (inactive)
GI50 [49]: 1.56 µM (inactive)
GI50 [28]: 1.54 µM (inactive)
GI50 [50]: > 10 µM (inactive)
GI50 [29]: 1.78 µM (inactive)
GI50 [30]: 1.89 µM (inactive)
GI50 [51]: 2.22 µM (inactive)
GI50 [52]: 0.708 µM (active)
GI50 [31]: 1.26 µM (inactive)
GI50 [53]: 1.51 µM (inactive)
GI50 [32]: 1.23 µM (inactive)
GI50 [33]: 1.72 µM (inactive)
GI50 [34]: 1.69 µM (inactive)
GI50 [35]: 1.64 µM (inactive)
GI50 [54]: 1.14 µM (inactive)
GI50 [36]: 1.31 µM (inactive)
GI50 [55]: 1.64 µM (inactive)
GI50 [37]: 1.53 µM (inactive)
GI50 [56]: 1.4 µM (inactive)
GI50 [38]: 0.787 µM (active)
GI50 [39]: 1.28 µM (inactive)
GI50 [57]: 1.62 µM (inactive)
GI50 [58]: 1.48 µM (inactive)

CCCCCCCCCCCCCC[C@@H](O)[C@H]1CC[C@H]([C@H]2CC[C@H]([C@H](O)CCCCCC[C@@H](O)CC3=C[C@H](C)OC3=O)O2)O1
GI50 [1]: > 25 µM (inactive)
GI50 [2]: 8.93 µM (inactive)
GI50 [3]: 0.203 µM (active)
GI50 [40]: > 25 µM (inactive)
GI50 [4]: 0.0552 µM (active)
GI50 [41]: 1.54 µM (inactive)
GI50 [5]: 2.2 µM (inactive)
GI50 [42]: > 25 µM (inactive)
GI50 [6]: > 25 µM (inactive)
GI50 [7]: > 25 µM (inactive)
GI50 [8]: 3.65 µM (inactive)
GI50 [9]: > 25 µM (inactive)
GI50 [10]: > 25 µM (inactive)
GI50 [11]: > 25 µM (inactive)
GI50 [44]: > 25 µM (inactive)
GI50 [12]: > 12.5 µM (inactive)
GI50 [13]: > 25 µM (inactive)
GI50 [14]: > 25 µM
GI50 [15]: > 25 µM (inactive)
GI50 [45]: 1.75 µM (inactive)
GI50 [16]: 1.63 µM (inactive)
GI50 [46]: > 7.52 µM (inactive)
GI50 [17]: > 25 µM (inactive)
GI50 [18]: > 15.3 µM (inactive)
GI50 [19]: 4.24 µM (inactive)
GI50 [20]: > 25 µM (inactive)
GI50 [47]: 1.2 µM (inactive)
GI50 [21]: > 25 µM (inactive)
GI50 [22]: 0.117 µM (active)
GI50 [23]: 3.34 µM (inactive)
GI50 [24]: > 25 µM (inactive)
GI50 [25]: > 25 µM (inactive)
GI50 [48]: > 25 µM (inactive)
GI50 [26]: > 25 µM (inactive)
GI50 [49]: 1.03 µM (active)
GI50 [28]: > 25 µM (inactive)
GI50 [50]: > 20.1 µM (inactive)
GI50 [29]: > 25 µM (inactive)
GI50 [30]: > 25 µM (inactive)
GI50 [51]: > 25 µM (inactive)
GI50 [31]: > 25 µM (inactive)
GI50 [53]: > 25 µM (inactive)
GI50 [33]: > 25 µM (inactive)
GI50 [34]: 2.03 µM (inactive)
GI50 [35]: > 25 µM (inactive)
GI50 [59]: > 25 µM (inactive)
GI50 [54]: 2.22 µM (inactive)
GI50 [36]: > 25 µM (inactive)
GI50 [55]: 1.22 µM (inactive)
GI50 [37]: > 25 µM (inactive)
GI50 [56]: 1.7 µM (inactive)
GI50 [38]: > 25 µM (inactive)
GI50 [39]: > 25 µM (inactive)
GI50 [57]: > 25 µM (inactive)
GI50 [58]: > 13.8 µM (inactive)
